# Where two headings read alike, the source gives them in different places.
# How the values were obtained:
# [1] = cited from earlier work; for δD: energy from dispersion forces; for δH: energy from hydrogen bonds; for δP: energy from polar intermolecular force
# [2] = HSP distance Ra and relative energy difference RED of solvents versus plant wax HSP values; conditions: for RED 1: RED=Ra 1/Ro; for RED 1 / RED 2: Ro=7.1; for RED 2: RED=Ra 2/Ro
# Text: The HSP distance between two molecules, conventionally called Ra, is the measure of how alike they are. The smaller the Ra, the more likely they are to be compatible. A quantity called the relative energy difference (RED) may be used to measure relative distance:
# where Ro is the radius of the sphere that contains all good solvents. […] Generally, a value of Ro=7.1 is typical. For RED<1, the molecules are alike and will dissolve. For RED=1, the system will partially dissolve. For RED>1, the system will not dissolve.
# A solvent with similar HSP values to these, or a solvent for which Ra (calculated as shown above) is small, or for which RED is less than or equal to 1, would be expected to partially solvate and soften plant leaf cuticle waxes.
# [3] = HSP distance to lower plant wax HSP values (δD=16.0-16.3, δP 0-2.5, δH=0-3.1)
# [4] = HSP distance to upper plant wax HSP values (δD=16.0-16.3, δP 0-2.5, δH=0-3.1)
Compound,δD [1] [MPa^1/2],δH [1] [MPa^1/2],δP [1] [MPa^1/2],"Ra 2 [2, 3]","Ra 1 [2, 4]",RED 1 [2],RED 2 [2],Ra 1 [2],Ra 2 [2]
O=C(OCc1ccccc1)c1ccccc1 [Benzyl Benzoate],20,5.2,5.1,8.1,10.8,1.52,1.14,,
O=C1OCCO1 [Ethylene Carbonate],,,,19.6,22.6,3.19,2.76,,
CCCCOCCO [Ethylene Glycol Monobutyl Ether],16,12.3,5.1,9.6,13.3,1.88,1.35,,
CC(=O)OCCC(C)C [Iso-Pentyl Acetate],15.3,7,3.1,4.4,7.8,1.10,0.62,,
CC1CCCCC1 [Methyl Cyclohexane],16,1,0,,,0.14,0.47,1.0,3.3
CCCCCCCC/C=C\CCCCCCCC(=O)OC [Methyl Oleate],16.2,4.5,3.8,1.9,5.9,0.83,0.27,,
CC1COC(=O)O1 (stereo not shown) [Propylene Carbonate],20,4.1,18,17.2,20.1,2.83,2.42,,
CC1=CC=C(C(C)C)CC1 [alpha terpinene],16.2,4.6,1,2.1,4.7,0.67,0.30,,
CC1=CC[C@@H](C(C)(C)O)CC1 [alpha terpineol],16.1,11.2,4.6,8.4,12.1,1.71,1.18,,
CCCCOC(=O)c1ccccc1 [butyl benzoate],18.3,5.5,5.6,5.6,9.1,1.28,0.79,,
CCCCOC(=O)CC(C)O (stereo not shown) [butyl-3-hydroxybutyrate],16.10,11.50,6.40,9.3,13.2,1.85,1.31,,
C1CCCCC1 [cyclohexane],16.8,0.2,0,4.0,1.6,0.23,0.56,,
OC1CCCCC1 [cyclohexanol],17.4,13.5,4.1,10.7,14.4,2.03,1.51,,
C=C(C)[C@H]1CC=C(C)CC1 [d-limonene],17.2,4.3,1.8,2.3,5.2,0.74,0.32,,
CC12CCC(CC1)C(C)(C)O2 [eucalyptol],17,3.3,4,2.1,5.6,0.78,0.29,,
CCCCCCC [heptane],15.34,0,0,4.4,1.3,0.19,0.62,,
CCCCCCCO [heptanol],16.57,12.27,4.09,9.3,13.0,1.83,1.31,,
CCCCCCOC(C)=O [hexyl acetate],15.95,5.93,3.07,3.0,6.7,0.94,0.42,,
CC1=CC(=O)CC(C)(C)C1 [isophorone],16.6,7.4,8.2,7.2,11.1,1.56,1.01,,
C=CC(C)(O)CCC=C(C)C (stereo not shown) [linalool],16.5,6.9,2.8,3.8,7.5,1.06,0.54,,
Cc1cccc(O)c1 [m-Cresol],18.5,13.7,6.5,12.2,16.0,2.25,1.71,,
CCCCCCCCCCCC(=O)OC [methyl dodecanoate],16.54,5.43,2.06,2.4,5.9,0.83,0.34,,
CCCCCCCC(=O)OC [methyl octanoate],16.58,5.85,2.4,2.8,6.4,0.91,0.40,,
CCCCOC(C)=O [n-Butyl Acetate],15.8,6.3,3.7,3.6,7.3,1.03,0.50,,
CCCCOC(=O)CC [n-Butyl Propionate],15.7,5.9,5.5,,,1.14,0.60,8.1,4.3
CC(=O)OC(C)(C)C [t-Butyl Acetate],15,6,3.7,4.1,7.3,1.03,0.57,,
CC(C)(C)O [t-Butyl Alcohol],15.2,14.7,5.1,12.1,15.6,2.20,1.70,,
Dimethyl Cyclohexane,16.1,1.1,0,3.2,1.1,0.16,0.45,,
